Values belong to the molecule of their own block, whether it stands above or below them.
What was measured:
[1] = molecular target: T1, Dual specificity mitogen-activated protein kinase kinase 7 (Homo sapiens) (UniProt O14733); assay: Selectivity interaction (Upstate Kinase Profiler service (Millipore)) EUB0000056c MAP2K7; conditions: at 1 µM
T1 sequence (whole entry): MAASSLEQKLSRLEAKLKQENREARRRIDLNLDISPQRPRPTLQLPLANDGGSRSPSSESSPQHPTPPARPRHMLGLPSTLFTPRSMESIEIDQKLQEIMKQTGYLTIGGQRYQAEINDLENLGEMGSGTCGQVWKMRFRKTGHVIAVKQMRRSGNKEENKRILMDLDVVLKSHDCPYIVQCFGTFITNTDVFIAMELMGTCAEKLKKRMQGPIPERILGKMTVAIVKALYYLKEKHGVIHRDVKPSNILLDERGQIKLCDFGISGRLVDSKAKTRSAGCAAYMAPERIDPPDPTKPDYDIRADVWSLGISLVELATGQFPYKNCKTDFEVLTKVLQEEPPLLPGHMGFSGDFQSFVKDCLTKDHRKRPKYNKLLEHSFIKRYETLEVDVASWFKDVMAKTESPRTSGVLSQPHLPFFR

[2] = molecular target: T2, Serine/threonine-protein kinase ULK1 (Homo sapiens) (UniProt O75385); assay: Selectivity interaction (ActivX KiNativ screen (kinase selectivity in THP-1 cell lysates)) EUB0000639a ULK1; type: subcellular; conditions: lysate, at 5 µM
T2 sequence (whole entry): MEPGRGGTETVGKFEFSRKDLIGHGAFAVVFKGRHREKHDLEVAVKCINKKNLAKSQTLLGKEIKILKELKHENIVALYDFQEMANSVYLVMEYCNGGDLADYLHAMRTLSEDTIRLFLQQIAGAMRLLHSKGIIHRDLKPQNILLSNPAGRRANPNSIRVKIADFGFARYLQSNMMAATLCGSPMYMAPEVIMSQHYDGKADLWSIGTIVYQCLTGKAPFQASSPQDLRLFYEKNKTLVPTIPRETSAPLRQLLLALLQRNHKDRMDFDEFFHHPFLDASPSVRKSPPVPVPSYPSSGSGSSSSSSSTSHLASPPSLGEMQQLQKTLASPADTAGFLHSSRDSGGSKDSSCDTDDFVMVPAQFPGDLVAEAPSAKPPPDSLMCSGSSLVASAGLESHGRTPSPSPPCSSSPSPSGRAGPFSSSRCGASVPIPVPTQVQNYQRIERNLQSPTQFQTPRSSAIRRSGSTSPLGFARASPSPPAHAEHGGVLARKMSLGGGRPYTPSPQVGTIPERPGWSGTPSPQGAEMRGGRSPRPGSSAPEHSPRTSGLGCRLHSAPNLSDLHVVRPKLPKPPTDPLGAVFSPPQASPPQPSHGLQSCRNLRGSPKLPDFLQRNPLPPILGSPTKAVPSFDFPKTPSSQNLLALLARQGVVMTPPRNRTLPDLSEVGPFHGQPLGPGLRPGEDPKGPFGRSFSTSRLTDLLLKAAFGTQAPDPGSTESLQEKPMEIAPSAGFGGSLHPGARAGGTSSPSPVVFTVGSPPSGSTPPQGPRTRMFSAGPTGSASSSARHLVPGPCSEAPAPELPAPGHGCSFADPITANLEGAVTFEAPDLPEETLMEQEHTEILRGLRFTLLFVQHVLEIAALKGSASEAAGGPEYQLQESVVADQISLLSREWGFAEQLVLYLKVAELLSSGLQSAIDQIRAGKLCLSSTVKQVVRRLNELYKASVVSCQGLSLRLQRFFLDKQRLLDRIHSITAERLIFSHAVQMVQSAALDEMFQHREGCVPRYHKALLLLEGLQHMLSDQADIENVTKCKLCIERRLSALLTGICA

[3] = molecular target: T3, Mitogen-activated protein kinase kinase kinase 19 (Homo sapiens) (UniProt Q56UN5); assay: Selectivity interaction (KinomeScan (DiscoverX)) EUB0000695a MAP3K19; conditions: at 100 nM
T3 sequence (whole entry): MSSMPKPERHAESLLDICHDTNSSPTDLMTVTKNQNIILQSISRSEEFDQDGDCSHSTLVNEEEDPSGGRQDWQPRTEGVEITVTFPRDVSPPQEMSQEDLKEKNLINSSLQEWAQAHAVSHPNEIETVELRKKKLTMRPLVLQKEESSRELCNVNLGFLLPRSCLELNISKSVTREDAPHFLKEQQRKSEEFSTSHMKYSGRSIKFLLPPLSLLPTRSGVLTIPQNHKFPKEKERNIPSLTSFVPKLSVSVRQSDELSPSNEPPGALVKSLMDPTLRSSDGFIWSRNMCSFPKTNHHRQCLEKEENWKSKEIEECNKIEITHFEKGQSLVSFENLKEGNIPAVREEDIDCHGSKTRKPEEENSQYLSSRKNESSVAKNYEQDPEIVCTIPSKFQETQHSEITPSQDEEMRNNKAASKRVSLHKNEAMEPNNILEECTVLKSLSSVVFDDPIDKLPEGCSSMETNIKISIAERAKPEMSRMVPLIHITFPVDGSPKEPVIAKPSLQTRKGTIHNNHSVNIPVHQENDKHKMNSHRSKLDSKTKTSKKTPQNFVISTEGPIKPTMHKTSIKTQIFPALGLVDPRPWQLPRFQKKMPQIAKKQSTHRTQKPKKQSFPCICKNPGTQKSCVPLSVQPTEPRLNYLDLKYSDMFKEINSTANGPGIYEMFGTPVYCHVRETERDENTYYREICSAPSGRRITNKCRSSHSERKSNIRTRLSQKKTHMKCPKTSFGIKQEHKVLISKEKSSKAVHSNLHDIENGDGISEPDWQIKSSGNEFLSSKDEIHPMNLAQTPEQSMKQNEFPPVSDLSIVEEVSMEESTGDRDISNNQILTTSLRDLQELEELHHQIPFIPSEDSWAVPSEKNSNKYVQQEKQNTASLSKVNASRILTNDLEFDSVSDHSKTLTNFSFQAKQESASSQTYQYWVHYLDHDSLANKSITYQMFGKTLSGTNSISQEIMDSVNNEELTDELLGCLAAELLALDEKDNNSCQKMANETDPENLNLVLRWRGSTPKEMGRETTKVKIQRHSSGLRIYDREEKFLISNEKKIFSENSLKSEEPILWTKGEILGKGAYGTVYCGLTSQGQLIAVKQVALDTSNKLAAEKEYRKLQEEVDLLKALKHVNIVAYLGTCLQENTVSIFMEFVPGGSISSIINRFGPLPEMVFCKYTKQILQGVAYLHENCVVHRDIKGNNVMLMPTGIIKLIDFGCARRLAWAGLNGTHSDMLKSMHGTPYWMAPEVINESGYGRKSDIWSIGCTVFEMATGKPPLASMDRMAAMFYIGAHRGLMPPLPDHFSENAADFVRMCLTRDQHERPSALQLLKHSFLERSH

[4] = molecular target: Macrophage colony-stimulating factor 1 receptor (Homo sapiens) (UniProt P07333); assay: Selectivity interaction (KinomeScan (DiscoverX)) EUB0001619a CSF1R; conditions: at 1 µM
[5] = molecular target: Tyrosine-protein kinase JAK1 (Homo sapiens, UniProt P23458); assay: Selectivity interaction (ActivX KiNativ screen (ex vivo kinase selectivity in human PBMCs)) EUB0001619a JAK1; type: cell-based; conditions: PBMC, at 1 µM
Chain of Tyrosine-protein kinase JAK1 (P23458 whole entry): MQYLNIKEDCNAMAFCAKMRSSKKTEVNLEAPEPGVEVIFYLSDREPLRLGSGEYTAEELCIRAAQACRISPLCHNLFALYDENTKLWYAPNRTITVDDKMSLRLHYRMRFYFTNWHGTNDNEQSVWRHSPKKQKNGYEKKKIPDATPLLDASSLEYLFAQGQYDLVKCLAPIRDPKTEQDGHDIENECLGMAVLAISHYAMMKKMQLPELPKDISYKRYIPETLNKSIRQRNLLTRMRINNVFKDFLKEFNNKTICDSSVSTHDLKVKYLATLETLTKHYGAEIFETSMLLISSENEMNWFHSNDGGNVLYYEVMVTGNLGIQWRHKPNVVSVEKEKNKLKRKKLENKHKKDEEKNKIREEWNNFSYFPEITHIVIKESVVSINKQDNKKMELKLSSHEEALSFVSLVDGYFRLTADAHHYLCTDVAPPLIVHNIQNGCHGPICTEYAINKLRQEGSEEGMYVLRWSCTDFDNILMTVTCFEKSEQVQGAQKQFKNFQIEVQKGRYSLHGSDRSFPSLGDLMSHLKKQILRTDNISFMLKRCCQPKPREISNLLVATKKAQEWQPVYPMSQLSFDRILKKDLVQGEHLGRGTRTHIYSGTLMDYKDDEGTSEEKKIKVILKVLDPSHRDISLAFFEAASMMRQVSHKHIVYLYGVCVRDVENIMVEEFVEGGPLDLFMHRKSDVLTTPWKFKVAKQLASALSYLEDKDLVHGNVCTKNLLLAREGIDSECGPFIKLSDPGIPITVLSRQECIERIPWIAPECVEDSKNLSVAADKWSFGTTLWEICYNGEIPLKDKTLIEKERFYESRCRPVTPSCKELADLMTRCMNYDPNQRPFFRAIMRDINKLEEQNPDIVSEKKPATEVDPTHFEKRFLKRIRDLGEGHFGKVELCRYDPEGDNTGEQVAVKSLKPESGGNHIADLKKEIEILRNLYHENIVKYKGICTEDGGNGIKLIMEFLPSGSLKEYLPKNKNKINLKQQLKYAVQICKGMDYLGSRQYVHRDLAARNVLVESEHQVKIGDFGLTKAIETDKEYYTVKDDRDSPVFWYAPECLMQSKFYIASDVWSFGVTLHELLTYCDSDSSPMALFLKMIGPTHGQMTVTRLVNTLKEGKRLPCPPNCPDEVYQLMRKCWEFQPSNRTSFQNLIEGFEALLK

Chain of Macrophage colony-stimulating factor 1 receptor (Homo sapiens) (P07333 whole entry): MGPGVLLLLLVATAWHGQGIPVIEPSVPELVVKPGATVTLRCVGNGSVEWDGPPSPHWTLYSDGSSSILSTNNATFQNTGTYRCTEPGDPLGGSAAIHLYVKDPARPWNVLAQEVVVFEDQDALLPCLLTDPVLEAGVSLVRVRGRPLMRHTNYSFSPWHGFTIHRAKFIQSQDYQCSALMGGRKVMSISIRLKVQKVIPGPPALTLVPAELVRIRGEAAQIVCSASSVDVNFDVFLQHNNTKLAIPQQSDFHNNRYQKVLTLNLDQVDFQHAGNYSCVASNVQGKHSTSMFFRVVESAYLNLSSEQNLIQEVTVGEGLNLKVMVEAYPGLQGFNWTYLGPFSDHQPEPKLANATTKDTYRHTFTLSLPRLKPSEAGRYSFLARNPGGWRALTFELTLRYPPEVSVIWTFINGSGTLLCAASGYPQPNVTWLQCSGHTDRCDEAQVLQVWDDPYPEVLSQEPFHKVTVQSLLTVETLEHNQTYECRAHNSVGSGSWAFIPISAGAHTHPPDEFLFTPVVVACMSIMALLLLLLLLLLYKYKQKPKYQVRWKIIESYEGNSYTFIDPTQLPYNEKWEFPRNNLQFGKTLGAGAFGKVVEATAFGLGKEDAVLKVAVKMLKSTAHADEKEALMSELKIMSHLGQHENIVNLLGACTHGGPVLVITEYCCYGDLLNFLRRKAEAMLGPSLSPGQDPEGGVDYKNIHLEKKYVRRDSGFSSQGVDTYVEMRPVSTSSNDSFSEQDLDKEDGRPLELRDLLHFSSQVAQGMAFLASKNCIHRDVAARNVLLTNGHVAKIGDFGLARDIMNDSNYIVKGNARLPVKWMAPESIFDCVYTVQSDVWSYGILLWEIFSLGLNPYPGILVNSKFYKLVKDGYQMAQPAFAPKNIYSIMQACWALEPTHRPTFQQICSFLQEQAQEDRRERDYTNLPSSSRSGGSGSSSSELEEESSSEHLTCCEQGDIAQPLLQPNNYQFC

% of inhibition [1]: -8%
SMILES: Cc1ccc(-c2ccc3c(ccc4sc5c(c43)NC[C@@H](C)NC5=O)n2)cn1

% of inhibition [2]: -74.1%
SMILES: CC[C@@H]1[C@H](F)C(=O)N[C@@H]1COc1nccc2cc(C(N)=O)c(OC)cc12 [ZIMLOVISERTIB]

SMILES: Cc1cc(F)c(C(=O)Nc2cccc(-c3nncn3C(C)C)n2)cc1-n1cnc(C2CC2)c1
% of control [3]: 57%

SMILES: N#Cc1cccc(-c2c[nH]c3ncnc(N4CCOCC4)c23)c1
% of control [4]: 100% | % of inhibition [5]: -1%

Source: ChEMBL document CHEMBL5465560, “Selectivity Literature for EUbOPEN Chemogenomic Library” (2024)
